Assay results reported in patent US20220267288A1, “CARDIAC THERAPEUTIC” (priority 2019, published 2022).
Blank lines part the entries; values can stand above or below the molecule they belong to.

Tests used:
dogs = assay: Electrophysiological variables (AERP, VERP, repolarization periods) in halothane-anesthetized dogs; assay type: in vivo, dog; conditions: 3 mg/kg
Description: Animals were obtained through Kitayama Labes Co., Ltd. (Nagano, Japan). All experiments were approved by the Toho University Animal Care and User Committee (No. 18-51-395) and performed according to the Guideline for the Care and Use of Laboratory Animals of Toho University.
The dogs were initially anesthetized with thiopental sodium (30 mg/kg, i.v.). After intubation with a cuffed endotracheal tube, anesthesia was maintained by inhalation of halothane (1% v/v) vaporized in oxygen with a volume-limited ventilator (SN-480-3; Shinano Manufacturing Co., Ltd., Tokyo, Japan). Tidal volume and respiratory rate were set at 20 mL/kg and 15 breaths/min, respectively. […] To prevent blood clotting, heparin calcium (100 IU/kg) was intravenously administered through a flush line of the catheter sheath placed at the right femoral vein.
The lead II electrocardiogram was obtained from the limb electrodes. The P-wave duration, PR interval, QRS width and QT interval were measured, and QT interval was corrected with Van de Water's formula: QTc=QT-0.087×(RR-1,000) with RR given in ms. The J-Tpeak and Tpeak-Tend were measured as follows. When the end of T-wave was obscure, we used the monophasic action potential (MAP) signal as a guide to estimate the end. The J-Tpeak was corrected for the heart rate with a coefficient as previously described (J-Tpeakc=J-Tpeak/RR^0.58 with RR given in seconds).
A standard 6-French, quad-polar electrodes catheter (Cordis-Webster Inc., Baldwin Park, Calif., USA) was positioned at the non-coronary cusp of the aortic valve through the left femoral artery to obtain the His bundle electrogram. Another 6-French, quad-polar electrode catheter (Cordis-Webster Inc.) was positioned at the sinus nodal areas of the right atrium through the right femoral vein to electrically pace and to record the local electrogram. A bi-directional steerable MAP recording/pacing combination catheter (1675P; EP Technologies, Inc., CA, USA) was positioned at the endocardium of the interventricular septum in the right ventricle through the left femoral vein to obtain MAP signals. The signals were amplified with a DC preamplifier (model 300; EP Technologies, Inc.). The duration of the MAP signals was measured as an interval, along a horizontal line corresponding to the diastolic baseline, from the MAP upstroke to the desired repolarization level. The interval (ms) at 90% repolarization was defined as MAP90.
The heart was electrically driven with a cardiac stimulator (SEC-3102; Nihon Kohden Co., Ltd.) via the pacing electrodes of the combination catheter placed in the right ventricle or the electrodes of the catheter placed at the right atrium. The stimulation pulses were rectangular in shape, 1-2 V (about twice the threshold voltage) and 1 ms duration. The MAP90 of the ventricle was measured during sinus rhythm (MAP90(sinus)) and at a pacing cycle length of 400 ms (MAP90(CL400)) and 300 ms (MAP90(CL300)). The atrial effective refractory period (AERP) and ventricular effective refractory period (VERP) were assessed with the programmed electrical stimulation. The pacing protocol consisted of 5 beats of basal stimuli in a cycle length of 400 ms followed by an extra stimulus of various coupling intervals. Starting in the late diastole, the coupling interval was shortened in 5-ms decrements until the additional stimulus could no longer elicit a response. The AERP and VERP were defined as the shortest coupling interval that could produce a response. The duration of the terminal repolarization period of the ventricle, reflecting phase-3 repolarization time of the action potential, was calculated by the difference between the MAP90(CL400) and VERP (terminal repolarization period=MAP90(CL400)−VERP) at the same site to estimate the extent of electrical vulnerability of the ventricular muscle.

H9c2 cells [1] = assay: Reduction of intracellular ATP (Mitochondrial ToxGlo) in differentiated H9c2 cells; assay type: cell-based; conditions: 0-1 μM pre-treatment 2 h, then dronedarone
Description: (§1) H9c2 cell line was purchased from American Tissue Type Collection (ATCC) (Manassas, Va.). The cells were cultured in low-glucose DMEM growth media (Cat No: 31600, Thermo Fisher Scientific, Waltham, Mass.) supplemented with 1.5 g/L sodium bicarbonate, 25 mM HEPES, 10% fetal bovine serum (FBS) (GE Healthcare, Singapore), 100 units/mL penicillin, 100 μg/mL streptomycin and 250 ng/mL amphotericin B in 75-cm^2 tissue-culture flasks at 37° C. in a humidified atmosphere of 5% CO2. Cells were fed every 2-3 days and sub-cultured once 70-80% confluency was achieved to prevent the loss of differentiation potential. For differentiation, H9c2 cells were seeded at a density of 100,000 cells/well in 12-well plates. The cells were maintained for 1 day in low-glucose high-serum growth media to allow for cell attachment. Subsequently, cells were differentiated using 1 μM ATRA.
H9c2 cells were seeded in a white chimney plate and differentiated. The media was changed to DMEM with 10 mM galactose, 2 mM glutamine (6 mM final), 5 mM HEPES, 1 mM sodium pyruvate, 100 U/mL penicillin, 100 μg/mL streptomycin, 0.25 μg/mL amphotericin B, 1% FBS, 1× insulin-transferrin-selenium and 1 μM ATRA for 48 h to overcome the Crabtree effect. […] The cytotoxicity and intracellular ATP content were measured concurrently using Mitochondrial ToxGlo™ kit (Promega, Madison, Wis.) using manufacturer's protocol. Mitochondrial ToxGlo™ assay measures the cell viability using fluorogenic peptide bis-alanine-alanine-phenylalanine-R110 (bis-AAF-R110). Bis-AAF-R110 is a selective peptide that measures protease activity in dead cells since it is impermeable to live cells. Here, the fluorescence derived from metabolized bis-AAF-R110 was measured at different concentrations of the test compounds and compared to control. As the concentration of cytotoxic compound increases, the number of dead cells increases, leading to a higher fluorescence signal. ATP is measured by adding the ATP Detection Reagent, resulting in cell lysis and generation of a luminescent signal proportional to the amount of ATP present. […]

H9c2 cells [2] = assay: Mitochondrial membrane potential (Δψm) dissipation, TMRM dye; assay type: cell-based; conditions: pre-treatment, then dronedarone at 5 μM
Description: as §1
Dissipation of Δψm by each test compound was measured using mitochondrial permeable dye, tetramethylrhodamine methyl ester perchlorate (TMRM) (Thermo Fisher Scientific, Waltham, Mass.). […] The media was aspirated, the cells were washed with PBS and fluorescence was measured at 557 nm excitation and 570 nm emission wavelengths. […] The media was aspirated and then the cells were treated with dronedarone and the dissipation of Δψm by AADs was measured as described.

hiPSC-CM = assay: Extracellular field potential duration (FPD), multi electrode array; assay type: cell-based, human; conditions: MEA, 0-10 μM
Description: Electrophysiological perturbations of hiPSC-CM were measured using multi electrode array (MEA) recording system (Multichannel Systems, Reutlingen, Germany). […] FPD measurements were normalized (corrected FPD [cFPD]) to the beating rate of the contracting areas with the Bazzet correction formula: cFPD=FPD/√(RR interval) as described previously^3. One-phase decay algorithm was used to plot corrected FPD curves.

CYP2J2 [3] = target: T1, CYP2J2 (Homo sapiens, UniProt P51589); assay: Time- and concentration-dependent inactivation (MBI) of CYP2J2, rivaroxaban as probe substrate; assay type: biochemical; set-up: purchased BD Gentest (Woburn, Mass.)
T1 sequence (P51589 1-502): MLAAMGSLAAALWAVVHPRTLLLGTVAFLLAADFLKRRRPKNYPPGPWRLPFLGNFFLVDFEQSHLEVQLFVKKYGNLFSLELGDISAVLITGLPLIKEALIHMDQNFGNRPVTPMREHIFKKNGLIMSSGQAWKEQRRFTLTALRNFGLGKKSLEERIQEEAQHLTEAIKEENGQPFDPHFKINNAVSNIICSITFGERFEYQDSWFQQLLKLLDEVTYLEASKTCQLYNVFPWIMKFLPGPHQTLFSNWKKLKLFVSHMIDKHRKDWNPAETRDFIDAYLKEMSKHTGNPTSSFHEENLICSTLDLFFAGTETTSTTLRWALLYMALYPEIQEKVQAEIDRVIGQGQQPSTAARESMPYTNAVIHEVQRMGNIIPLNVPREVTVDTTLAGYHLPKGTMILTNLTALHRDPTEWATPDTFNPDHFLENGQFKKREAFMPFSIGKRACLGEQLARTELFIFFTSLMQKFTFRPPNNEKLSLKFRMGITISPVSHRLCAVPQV
Description: Incubations were conducted in triplicates in 96-well plates. Primary incubation mixtures comprising various concentrations of inhibitor (0-20 μM) were pre-incubated at 37° C. for 3 min with CYP450 enzymes (20 pmol/m L) and NADPH B in potassium phosphate buffer (100 mM, pH 7.4). To initiate the enzymatic reaction, 5 μL NADPH A was added to the primary incubation. The final primary incubation mixture volume was 100 μL and contained <1% v/v organic solvent. At different pre-incubation time points (3, 8, 15, 22, 30, and 45 min) after the addition of NADPH A, 5 μL aliquots of the primary incubation were transferred to 95 μL of the secondary incubation containing 50 μM rivaroxaban, the NADPH A and B, and potassium phosphate buffer (100 mM, pH 7.4) to yield a 20-fold dilution. The secondary incubation mixtures were incubated at 37° C. for 30 min with CYP2J2, before 80 μL aliquots were removed and quenched with an equal volume of ice-cold ACN containing 4 μM dexamethasone as IS. The samples were then centrifuged at 3220 g at 4° C. for 30 min before transferring the supernatant to a 96-well plate for liquid chromatography-tandem mass spectrometry (LC-MS/MS) analysis. The main rivaroxaban metabolite, morpholinone hydroxylated metabolite, was quantified using LC-MS/MS analysis.
The mean of triplicate peak area ratios for each concentration and pre-incubation time was normalized to that of 0 μM with the same pre-incubation time. The amount of rivaroxaban metabolite formed during the secondary incubation, a measure of the probe substrate activity remaining, was computed and the natural logarithm of this measure was plotted against inactivation pre-incubation time for each inactivator concentration. […]
In equation 1, kinact=maximum inactivation rate constant at infinite inactivator concentration (in min^−1); KI=concentration of inactivator at the half-maximal rate constant of inactivation (in μM); [I]=in vitro inactivator concentration (in μM). MBI potency (kinact/KI ratio, μM-1·min-1) against human recombinant CYP2J2 is determined for each compound. […]

CYP2J2 [4] = system: CYP2J2
Description: The human ES cell line (H7 ESCs) with a knocked in, constitutively expressed Genetically Encoded Calcium Indicator (GECI) GCaMP6s was maintained on matrigel coated plates in StemMACS™ iPS-Brew XF (Miltenyi Biotec) and passaged in clumps using Collagenase IV (1 mg/mL) enzymatic treatment. For differentiation, ESCs were passaged in single cells using Accutase (Nacalai Tesque), and subjected to the previously established small molecule based GiWi cardiomyocyte differentiation protocol. At Day 7, the media was replaced with RPMI1640 (HyClone) supplemented with B27 with insulin (B27+) (Miltenyi Biotec) for maturation and refreshed every 2 days. […] The cardiomyocytes (H7 CMs) were used for siRNA transfections on day 28. […]
RNA samples (250 ng) were reverse transcribed to obtain cDNA using High-Capacity cDNA Reverse Transcription Kit (Applied Biosystems, U.S.A.). qPCR was performed using the FAST SYBR Green Mix (Applied Biosystems, U.S.A.) on 5 ng of cDNA. ΔΔCT-based relative quantification method was adopted for qPCR analysis using the QuantStudio 5 384-well Block Real-Time PCR system (Applied Biosystems, U.S.A.). The threshold cycle was determined to be Data is presented as fold-change where CT values were normalised to β-ACT/N. Data presented are representative of two independent experiments with error bars indicative of the standard deviation (SD) unless otherwise stated.

ΔJ-Tpeakc (early repolarization period) (dogs; 10 min after administration): +35
ΔTRP (terminal repolarization period) (dogs; 10 min after administration): −1
ΔTpeak-Tend (late repolarization period) (dogs; 10 min after administration): +17
Molecule: CC(C)NCC(O)c1ccc(NS(C)(=O)=O)cc1 (racemic) [dl-sotalol]
Atrial selectivity (ΔAERP/ΔVERP) (dogs; 20 min after administration): 1.1
ΔAERP (dogs; 20 min after administration): +60
ΔVERP (dogs; 20 min after administration): +53
Atrial selectivity (ΔAERP/ΔVERP) (dogs; 30 min after administration): 1.0
ΔAERP (dogs; 30 min after administration): +56
ΔVERP (dogs; 30 min after administration): +54

Molecule: CCCCCC1OC1C/C=C\C/C=C\C/C=C\CCCC(=O)O (stereo not shown) [14,15-EET]
effect of pre-treatment on dronedarone-induced decrease in intracellular ATP (H9c2 cells [1]): mitigated the decrease in intracellular ATP levels in a concentration-dependent manner
effect of pre-treatment on dronedarone-induced Δψm dissipation (H9c2 cells [2]): concentration-dependent mitigation of Δψm dissipation

ΔJ-Tpeakc (early repolarization period) (dogs; 15 min after administration): −10
ΔTRP (terminal repolarization period) (dogs; 15 min after administration): −11
ΔTpeak-Tend (late repolarization period) (dogs; 15 min after administration): +18
Molecule: CCCCc1oc2ccccc2c1C(=O)c1cc(I)c(OCCN(CC)CC)c(I)c1 [Amiodarone]
ΔAERP (dogs; 60 min after administration): +29
ΔVERP (dogs; 60 min after administration): +18
effect on extracellular field potential duration (FPD) (hiPSC-CM): Dose-dependent increase in the FPD

Molecule: Cl.[2H]c1c([2H])c(C(=O)c2c(CCCC)oc3ccc(NS(C)(=O)=O)cc23)c([2H])c([2H])c1OCCCN(CCCC)CCCC [Compound 2]
inactivation (MBI) of CYP2J2, in words (CYP2J2 [3]): inactivated CYP2J2 in a time- and concentration-dependent manner

ΔJ-Tpeakc (early repolarization period) (dogs; 20 min after administration): +31
ΔTRP (terminal repolarization period) (dogs; 20 min after administration): +4
ΔTpeak-Tend (late repolarization period) (dogs; 20 min after administration): +14
Molecule: CC(C)COCC(CN(Cc1ccccc1)c1ccccc1)N1CCCC1 (stereo not shown) [bepridil]
Atrial selectivity (ΔAERP/ΔVERP) (dogs; 10 min after administration): 3.0
ΔAERP (dogs; 10 min after administration): +53
ΔVERP (dogs; 10 min after administration): +55

Molecule: siRNA1: Accell self-delivery siRNA against CYP2J2, CUCAGGUGUAAUAUUGUUA, SEQ ID NO: 1 (Accell self-delivery modifications, pattern not given here)
knockdown of CYP2J2, in words (CYP2J2 [4]): most effective
